Measurements: patent publication US20040105857A1, “Methods and compositions for enhancing angiogenesis” (priority 2003, published 2004)

Columns and labels:
[1] = test system: chick chorioallantoic membrane (CAM); test: Angiogenesis assay in the chick chorioallantoic membrane (CAM) model, vessel branch point count; assay type: in vivo; conditions: for induction of angiogenic response (vessel branch points): within a defined concentration range
Protocol: FIG. 1 depicts induction of angiogenesis by soluble L1-fusion protein containing the fourth, fifth, and sixth Ig-like domains of L1 (Ig 4-6). a. GST fusion proteins were made covering the entire extra-cellular domain of L1 and consisted of immunoglobulin like domains 1 through 3 (Ig1 3), immunoglobulin like domains 4 through 6 (Ig4-6), and FN type III like domains 1-5 (FN1 5). b. The L1-fusion proteins (Ig 1-3, Ig 4-6 or FN1-5) were tested for their ability to induce an angiogenic response in the chick chorioallantoic membrane (CAM) model. Filter discs each received 0.5 mg of Ig4-6 fusion protein ([…]) or equimolar amounts of the Ig 1-3, or FN1-5 fusion proteins. Negative or positive control groups received filter discs saturated with media alone or with bFGF respectively. Angiogenesis was quantified by counting the number of vessel branch points within the area of membrane immediately beneath the disc. The number of vessel branch points counted in the control group receiving media alone has been subtracted. Treatment groups consisted of a minimum of six embryos and experiments were performed on three separate occasions. c. […] Results obtained using bFGF or media alone are shown for comparison. Note that fine and highly branched angiogenic vessels can be distinguished from large preexisting vessels. Dotted lines delineate the area of the filter disc placed on the membrane. Excised membrane beneath and adjacent to the filter discs were photographed using an Olympus SZH10 Research Stereo microscope at 15×.
FIG. 2 depicts induction of angiogenesis by a L1-RGD peptide and by a function blocking antibody to β1 integrins. a. The L1 peptide PSITWRGDGRDLQEL or the mutant L1 peptide PSITWRADGRDLQEL were tested for their ability to induce an angiogenic response in the chick CAM model. b. Function blocking antibodies to chick avβ3 (LM609) or to chick β1-intgrins (CSAT) were also tested. […] Angiogenesis was quantified by counting the number of vessel branch points within the area of membrane immediately beneath the disc. The number of vessel branch points counted in the control group receiving media alone has been subtracted. c. […]
FIG. 3 depicts induction of angiogenesis by L1 cleavage products. a. […] Untreated and digested L1 (trypsin free) was then analyzed by SDS polyacrylamide gel electrophoresis (5-15% gradient). b. Sites of trypsin cleavage were determined by amino terminal sequencing and are shown schematically. c. […] Angiogenesis was quantified by counting the number of vessel branch points within the area of membrane immediately beneath the disc.
Angiogenesis assay. Angiogenesis was assessed using the chick chorioallantoic membrane (CAM) model which has been extensively described^54. […]

[2] = target: T1, αvβ1 expressed by endothelial cells (Homo sapiens, UniProt P05556+P06756); conditions: reference 18; cited from earlier work
T1 construct: αvβ1 expressed by endothelial cells; endogenous in cells
T1 sequence (P06756 31-889 limits assumed): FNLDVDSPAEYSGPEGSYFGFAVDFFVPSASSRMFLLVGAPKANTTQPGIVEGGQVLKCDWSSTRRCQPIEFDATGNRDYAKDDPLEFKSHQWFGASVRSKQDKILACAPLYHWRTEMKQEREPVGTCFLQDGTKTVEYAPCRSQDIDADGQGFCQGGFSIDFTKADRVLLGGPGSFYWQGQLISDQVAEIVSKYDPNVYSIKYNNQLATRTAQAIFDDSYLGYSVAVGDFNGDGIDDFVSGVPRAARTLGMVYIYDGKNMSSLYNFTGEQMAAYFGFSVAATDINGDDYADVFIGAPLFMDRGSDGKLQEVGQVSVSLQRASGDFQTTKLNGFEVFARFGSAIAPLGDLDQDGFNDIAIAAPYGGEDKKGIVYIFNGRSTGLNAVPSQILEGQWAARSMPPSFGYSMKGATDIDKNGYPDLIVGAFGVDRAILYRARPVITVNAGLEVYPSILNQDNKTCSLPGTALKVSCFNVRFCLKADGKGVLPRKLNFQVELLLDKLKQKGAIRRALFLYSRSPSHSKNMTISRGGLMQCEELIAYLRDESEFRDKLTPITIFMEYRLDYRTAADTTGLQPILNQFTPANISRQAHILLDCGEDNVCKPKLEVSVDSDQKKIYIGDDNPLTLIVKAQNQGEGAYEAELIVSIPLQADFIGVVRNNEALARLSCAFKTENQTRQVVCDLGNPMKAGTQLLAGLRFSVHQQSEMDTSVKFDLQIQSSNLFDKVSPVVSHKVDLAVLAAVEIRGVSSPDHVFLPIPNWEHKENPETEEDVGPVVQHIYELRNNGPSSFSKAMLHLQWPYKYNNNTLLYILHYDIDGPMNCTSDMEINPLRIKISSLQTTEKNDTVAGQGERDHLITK
T1 sequence (P06756 891-1048 limits assumed): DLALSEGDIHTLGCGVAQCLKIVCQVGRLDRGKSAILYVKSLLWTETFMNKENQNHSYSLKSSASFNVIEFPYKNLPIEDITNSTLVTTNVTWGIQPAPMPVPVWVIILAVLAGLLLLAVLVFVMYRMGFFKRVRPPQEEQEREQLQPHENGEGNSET
T1 sequence (P05556 21-798): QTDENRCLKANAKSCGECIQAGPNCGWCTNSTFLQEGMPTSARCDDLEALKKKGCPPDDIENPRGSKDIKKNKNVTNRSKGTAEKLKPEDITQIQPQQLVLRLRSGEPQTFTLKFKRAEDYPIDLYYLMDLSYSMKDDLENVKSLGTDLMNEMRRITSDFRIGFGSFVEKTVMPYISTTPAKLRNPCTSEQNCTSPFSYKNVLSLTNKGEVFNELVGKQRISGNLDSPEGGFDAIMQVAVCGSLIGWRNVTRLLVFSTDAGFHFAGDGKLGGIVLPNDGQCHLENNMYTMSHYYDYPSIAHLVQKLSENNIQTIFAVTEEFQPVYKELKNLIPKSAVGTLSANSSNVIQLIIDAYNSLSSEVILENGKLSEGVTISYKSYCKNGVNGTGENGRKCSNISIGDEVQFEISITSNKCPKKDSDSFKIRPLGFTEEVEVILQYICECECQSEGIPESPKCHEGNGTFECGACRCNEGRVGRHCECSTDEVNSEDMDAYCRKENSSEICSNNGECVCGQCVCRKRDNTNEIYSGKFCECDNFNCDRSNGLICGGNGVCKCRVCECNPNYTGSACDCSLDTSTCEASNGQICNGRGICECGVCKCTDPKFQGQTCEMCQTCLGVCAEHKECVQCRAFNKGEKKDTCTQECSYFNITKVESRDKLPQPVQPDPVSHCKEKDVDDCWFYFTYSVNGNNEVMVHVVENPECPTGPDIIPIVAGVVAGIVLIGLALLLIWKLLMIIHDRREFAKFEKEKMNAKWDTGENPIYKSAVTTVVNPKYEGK

[3] = test system: HDMEC or ECV304 avb3(−) cell adhesion to fibronectin; test: Cell adhesion to fibronectin (data not shown); assay type: cell-based; parameters: effect on cell adhesion to fibronectin: dose or concentration left out as unconfirmed
Protocol: The extent to which the L1 polypeptide or L1-RGD peptide alters adhesivity between endothelial cells, or endothelial cells and the subendothelial matrix remains to be determined. However, at a high molarity (250 uM) the L1-RGD peptide abrogated 30-40% of HDMEC or ECV304 avb3(−) cell adhesion to fibronectin (data not shown). […] This would certainly be consistent with the fact that both αvβ3 and αvβ1 can promote cell adhesion or spreading on fibronectin^37-38.

integrin = test: Integrin-binding activity of mutant L1 peptide (data not shown)

## PSITWRGDGRDLQEL [L1-RGD peptide]
[1]; L1 peptides, 0.01-5 mg/disc
  induction of angiogenic response (vessel branch points): proangiogenic
[1]; high concentration of peptide or antibody
  angiogenic response at high concentration: not effective
[2]
  recognition by αvβ1: recognized by αvβ1
[3]; 250 uM peptide, HDMEC or ECV304 avb3(−) cells
  cell adhesion to fibronectin abrogated: 30-40%
[3]; lower proangiogenic concentrations
  effect on cell adhesion to fibronectin: did not overtly prevent adhesion

## PSITWRADGRDLQEL [15-mer L1 peptide containing the mutation RGD to RAD; control peptide]
integrin
  integrin-binding activity: retained some integrin-binding activity
[1]; L1 peptides, 0.01-5 mg/disc
  angiogenic activity compared with an equivalent concentration of the wildtype peptide: significantly less proangiogenic
  induction of angiogenic response (vessel branch points): some angiogenic activity
